Data on 25 compounds can be found in patent US9382243B2, “Azabenzimidazole tetrahydropyran derivatives” (Merck Sharp & Dohme Corp., priority 2012, dated 2016).

The target of assay [1] is recombinant human AMPK complex 1 (containing α1β1γ1) (Homo sapiens, UniProt Q13131+Q9Y478). Put plainly: AMPKSAMSF in vitro AMPK activation assay, complex 1. In kind it is biochemical. The following applies: for Emax: 10-point titration, expressed as % maximum AMP activation; for EC50: inflection point reflecting 50% of the maximum activation, table for human AMPK Complex 1. How it is done: The recombinant human AMPK complex 1 (containing α1β1γ1) or AMPK complex 7 (containing α2β1γ1) was obtained from baculovirus expression system. Recombinant viruses were generated by cotransfection of AMPK/pBacPak9 clones with Baculogold baculovirus DNA (Pharmingen) in spodoptera frugiperda 21 cells according to the manufacturer's instructions. Each round of virus amplification was performed for 5 days in Grace's medium containing 10% serum. Virus that had been subjected to three rounds of amplification was used for all protein production procedures. To express the AMPK complex, sf21 cells were adapted to serum free medium (SF900 II, Invitrogen) by sequential dilution from serum containing stocks into SF900II medium and maintained in shaker flasks at 90 rpm at 27° C. The recombinant AMPK enzyme complex was produced by triple infection, one recombinant virus for each of the subunits, in sf21 cells under serum free conditions. Cells were infected in log phase, 1×10^6 cells/ml, at a multiplicity of infection of ˜5. Cells were harvested by centrifugation at 10,000×g for 15 minutes after 72 hours of infection with viruses. The insect cell pellet from 2 liters of culture was resuspended in 50 ml lysis buffer (20 mM Tris-HCl, 50 mM NaCl, 50 mM NaF, 30 mM Na PPi, 0.25 M sucrose, 10 mM ZnCl2, 2 mM DTT, 0.4 mg/ml digitonin) and subjected to two cycles of freeze-thaw lysis in a dry-ice ethanol bath. Insoluble material was removed by centrifugation at 10,000×g and the supernatant was fractionated with use of polyethylene glycol (PEG). The protein fraction precipitating between 2.5 and 6% PEG was used for further purification using a Blue-Sepharose step (Zhou et al, J. Clin. Invest. 108, 1167-1174, 2001).
Sequence of recombinant human AMPK complex 1 (containing α1β1γ1) (Q13131 whole entry): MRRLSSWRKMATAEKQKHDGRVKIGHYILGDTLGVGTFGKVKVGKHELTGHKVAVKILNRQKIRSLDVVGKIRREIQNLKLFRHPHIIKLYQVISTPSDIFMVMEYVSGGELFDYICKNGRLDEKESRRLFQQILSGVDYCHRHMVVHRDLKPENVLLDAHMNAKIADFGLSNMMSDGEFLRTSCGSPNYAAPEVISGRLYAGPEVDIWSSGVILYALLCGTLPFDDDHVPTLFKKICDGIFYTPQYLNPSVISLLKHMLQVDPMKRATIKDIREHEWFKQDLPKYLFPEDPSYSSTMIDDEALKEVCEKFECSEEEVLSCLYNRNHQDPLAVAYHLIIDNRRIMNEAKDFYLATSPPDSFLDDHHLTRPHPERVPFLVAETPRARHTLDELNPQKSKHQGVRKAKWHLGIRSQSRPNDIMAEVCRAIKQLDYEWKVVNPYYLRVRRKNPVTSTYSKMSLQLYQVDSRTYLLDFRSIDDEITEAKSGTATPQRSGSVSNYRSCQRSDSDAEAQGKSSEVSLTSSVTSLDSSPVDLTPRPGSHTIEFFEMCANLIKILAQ
Sequence of recombinant human AMPK complex 1 (containing α1β1γ1) (Q9Y478 whole entry): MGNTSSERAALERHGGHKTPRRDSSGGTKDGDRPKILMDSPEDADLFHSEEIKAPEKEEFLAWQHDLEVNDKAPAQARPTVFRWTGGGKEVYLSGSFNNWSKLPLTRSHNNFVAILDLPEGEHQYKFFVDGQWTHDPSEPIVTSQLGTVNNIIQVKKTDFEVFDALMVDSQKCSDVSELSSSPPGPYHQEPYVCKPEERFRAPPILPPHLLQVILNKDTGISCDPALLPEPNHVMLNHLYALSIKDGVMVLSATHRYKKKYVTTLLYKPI
Sequence of recombinant human AMPK complex 1 (containing α1β1γ1) (P54619 whole entry partner): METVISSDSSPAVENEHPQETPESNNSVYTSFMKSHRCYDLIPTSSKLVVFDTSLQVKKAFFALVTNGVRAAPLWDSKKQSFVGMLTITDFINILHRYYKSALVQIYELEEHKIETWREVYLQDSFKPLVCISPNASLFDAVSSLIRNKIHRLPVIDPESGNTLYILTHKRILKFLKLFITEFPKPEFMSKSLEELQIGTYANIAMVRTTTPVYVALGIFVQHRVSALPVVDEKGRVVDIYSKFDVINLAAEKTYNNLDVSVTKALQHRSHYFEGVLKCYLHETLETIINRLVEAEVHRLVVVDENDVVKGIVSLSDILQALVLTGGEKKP
The in vitro AMPK activation assay is performed in a volume of 30 μl in a 384-well plate. Enzyme reactions were assembled in the microtiter plate by adding 15 μl of 2× enzyme in assay buffer (20 mM HEPES, pH 7.3, 5 mM MgCl2, 3 mM DTT, 0.01% Brij 35 and CamK Kinase, to activate AMPK) to wells which contained either DMSO or compound. The reaction was initiated with the addition of 15 μl 2× substrate mixture containing 200 μM ATP, and 3.0 μM fluorescently labeled SAMS (5-FAM-HMRSAMSGLHLVKRR-COOH) in assay buffer. After 45-minute incubation at 25° C., the reaction was stopped by the addition of 70 μl stop buffer (100 mM HEPES, pH 7.3, 40 mM EDTA, 0.015% Brij 35). Phosphorylated 5-FAM SAMS product is assessed using a Caliper EZ Reader LabChip microfluidics reader. Product conversion is determined by calculating the peak heights of the substrate and product and reporting the product/(product+substrate) peak ratio. The 10-point titration data were expressed as % maximum AMP activation. The results were plotted using 4 parameter fit and the inflection point reflecting 50% of the maximum activation was reported as the EC50.

For a further assay, the system named is ob/ob and db/db mice. The note with it: following 8 weeks of administration; cited from earlier work.

For the compound `OC[C@H]1OC[C@H](Oc2nc3nc(-c4ccc(-c5ccc(-n6nccn6)cc5)cc4)c(Cl)cc3[nH]2)C[C@@H]1O` [Example 47], in assay [1], the Emax was 590% and the EC50 is 25 nM.

For `O=C(c1ccc(-c2ccc(-c3nc4nc(O[C@H]5CO[C@H](CO)[C@@H](O)C5)[nH]c4cc3Cl)cc2)cc1)N1CC[C@@H](O)C1` [Example 61, (4′-(6-chloro-2-(((3R,5 S,6R)-5-hydroxy-6-(hydroxymethyl)tetrahydro-2H-pyran-3-yl)oxy)-1H-imidazo[4,5-b]pyridin-5-yl)-[1,1′-biphenyl]-4-yl)((R)-3-hydroxypyrrolidin-1-yl)methanone], in assay [1], the Emax was found to be 568% and the EC50 amounted to 36 nM.

`O=S(=O)(c1ccc(-c2ccc(-c3nc4nc(O[C@H]5CO[C@H](CO)[C@@H](O)C5)[nH]c4cc3Cl)cc2)cc1)C1COC1` [Example 55]: in assay [1], the maximal effect (Emax) stood at 752% and the EC50 is 8 nM.

Consider `CNC(=O)c1ccc(-c2ccc(-c3nc4nc(O[C@H]5CO[C@H](CO)[C@@H](O)C5)[nH]c4cc3Cl)cc2)cc1` [Example 71, 4′-(6-chloro-2-(((3R,5 S,6R)-5-hydroxy-6-(hydroxymethyl)tetrahydro-2H-pyran-3-yl)oxy)-1H-imidazo[4,5-b]pyridin-5-yl)-N-methyl-[1,1′-biphenyl]-4-carboxamide], for which, in assay [1], the Emax was 443% and the EC50 came to 6 nM.

Take `NC(c1ccc(-c2ccc(-c3nc4nc(O[C@H]5CO[C@H](CO)[C@@H](O)C5)[nH]c4cc3Cl)cc2)cc1)C(F)(F)F` (stereo partly drawn) [Example 49, (2R,3 S,5R)-5-((5-(4′-(1-amino-2,2,2-trifluoroethyl)-[1,1′-biphenyl]-4-yl)-6-chloro-1H-imidazo[4,5-b]pyridin-2-yl)oxy)-2-(hydroxymethyl)tetrahydro-2H-pyran-3-ol]: in assay [1], the Emax amounted to 464% and the EC50 amounted to 9 nM.

With `O=C(c1ccc(-c2ccc(-c3nc4nc(O[C@H]5CO[C@H](CO)[C@@H](O)C5)[nH]c4cc3Cl)cc2)cc1)N1CCC(O)(C(F)(F)F)CC1` [Example 73], in assay [1], the maximal response (Emax) is 249% and the EC50 was 8 nM.

Regarding `CC(C)(O)[C@H]1OC[C@H](Oc2nc3cc(Cl)c(-c4ccc(-c5ccccc5)cc4)nc3[nH]2)C[C@@H]1O` [Example 70, (2S,3 S,5R)-5-((5-([1,1′-biphenyl]-4-yl)-6-chloro-1H-imidazo[4,5-b]pyridin-2-yl)oxy)-2-(2-hydroxypropan-2-yl)tetrahydro-2H-pyran-3-ol], in assay [1], the maximal effect (Emax) was 417% and the EC50 came to 31 nM.

As to `NC(=O)c1ncn([C@@H]2O[C@H](CO)[C@@H](O)[C@H]2O)c1N` [AICAR], the blood glucose reduction with ob/ob and db/db mice is listed as 35%.

With `OC[C@H]1OC[C@H](Oc2nc3nc(-c4ccc(-c5ccccc5)cc4)c(Cl)cc3[nH]2)[C@@H](O)[C@@H]1O` [Example 62, (2R,3 S,4S,5 S)-5-((5-([1,1′-biphenyl]-4-yl)-6-chloro-1H-imidazo[4,5-b]pyridin-2-yl)oxy)-2-(hydroxymethyl)tetrahydro-2H-pyran-3,4-diol], in assay [1], the maximal response (Emax) was determined as 545% and the concentration for a half-maximal effect (EC50) was found to be 17 nM.

In the case of `CC(C)(O)c1ccc(-c2ccc(-c3nc4nc(O[C@H]5CO[C@H](CO)[C@@H](O)C5)[nH]c4cc3Cl)cc2)cc1` [Example 39, (2R,3 S,5R)-5-((6-chloro-5-(4′-(2-hydroxypropan-2-yl)-[1,1′-biphenyl]-4-yl)-1H-imidazo[4,5-b]pyridin-2-yl)oxy)-2-(hydroxymethyl)tetrahydro-2H-pyran-3-ol], in assay [1], the Emax stood at 379% and the concentration for a half-maximal effect (EC50) is 4 nM.

On to `CC1(O)CCN(C(=O)c2ccc(-c3ccc(-c4nc5nc(O[C@H]6CO[C@H](CO)[C@@H](O)C6)[nH]c5cc4Cl)cc3)cc2)CC1` [Example 72], for which, in assay [1], the Emax is 504% and the EC50 is 8 nM.

For the compound `CS(=O)(=O)c1ccc(-c2ccc(-c3nc4nc(O[C@H]5CO[C@H](CO)[C@@H](O)[C@@H]5O)[nH]c4cc3Cl)cc2)cc1` [Example 67], in assay [1], the Emax was determined as 418% and the EC50 turned out to be 3 nM.

With `OC[C@H]1OC[C@H](Oc2nc3nc(-c4ccc(-c5ccc(-c6ccn[nH]6)cc5)cc4)c(Cl)cc3[nH]2)C[C@@H]1O` [Example 46], in assay [1], the maximal effect (Emax) turned out to be 619% and the EC50 was found to be 15 nM.

With `OC[C@H]1OC[C@H](Oc2nc3nc(-c4ccc(N5CC[C@@H](O)C5)cc4)c(Cl)cc3[nH]2)C[C@@H]1O` [Example 34], in assay [1], the Emax was found to be 367% and the EC50 turned out to be 19 nM.

In the case of `OC[C@H]1OC[C@H](Oc2nc3nc(-c4ccc(N5CC[C@H](F)C5)cc4)c(Cl)cc3[nH]2)C[C@@H]1O` [Example 37], in assay [1], the Emax came to 473% and the EC50 came out at 22 nM.

Regarding `O=C(Nc1ccc(-c2ccc(-c3nc4nc(O[C@H]5CO[C@H](CO)[C@@H](O)C5)[nH]c4cc3Cl)cc2)cc1)OCC(O)CO` (stereo partly shown) [Example 77], in assay [1], the Emax was 494% and the EC50 was 15 nM.

Take `O=C(c1ccc(-c2ccc(-c3nc4nc(O[C@H]5CO[C@H](CO)[C@@H](O)[C@@H]5O)[nH]c4cc3Cl)cc2)cc1)N1CCC(O)CC1` [Example 68]: in assay [1], the Emax is 419% and the EC50 amounted to 6 nM.

As for `OC[C@H]1OC[C@H](Oc2nc3nc(-c4ccc(-c5ccc(-n6cccn6)cc5)cc4)c(Cl)cc3[nH]2)C[C@@H]1O` [Example 45], in assay [1], the Emax was determined as 417% and the EC50 came to 3 nM.

With `CC(C)(O)c1ccc(-c2ccc(-c3nc4nc(O[C@H]5CO[C@H](CO)[C@@H](O)[C@@H]5O)[nH]c4cc3Cl)cc2)cc1` [Example 66], in assay [1], the Emax is 410% and the EC50 came to 13 nM.

`O=S(=O)(CC1COC1)c1ccc(-c2ccc(-c3nc4nc(O[C@H]5CO[C@H](CO)[C@@H](O)C5)[nH]c4cc3Cl)cc2)cc1` [Example 54]: in assay [1], the Emax was 767% and the EC50 was determined as 9 nM.

Regarding `COC(=O)Nc1ccc(-c2ccc(-c3nc4[nH]c(O[C@H]5CO[C@H](CO)[C@@H](O)C5)nc4cc3Cl)cc2)cc1` [Example 74, Methyl (4′-(6-chloro-2-(((3R,5S,6R)-5-hydroxy-6-(hydroxymethyl)tetrahydro-2H-pyran-3-yl)oxy)-1H-imidazo[4,5-b]pyridin-5-yl)-[1,1′-biphenyl]-4-yl)carbamate], in assay [1], the Emax was found to be 460% and the EC50 amounted to 25 nM.

For `OC[C@H]1OC[C@H](Oc2nc3nc(-c4ccc(-c5ccc(-n6ccnn6)cc5)cc4)c(Cl)cc3[nH]2)C[C@@H]1O` [Example 48], in assay [1], the Emax turned out to be 615% and the EC50 is 2 nM.

On to `CC(CO)Oc1ccc(-c2nc3nc(O[C@H]4CO[C@H](CO)[C@@H](O)C4)[nH]c3cc2Cl)cc1` (stereo partly drawn) [Example 1, (2R,3S,5R)-5-((6-chloro-5-(4-((1-hydroxypropan-2-yl)oxy)phenyl)-1H-imidazo[4,5-b]pyridin-2-yl)oxy)-2-(hydroxymethyl)tetrahydro-2H-pyran-3-ol], for which, in assay [1], the Emax was determined as 574% and the half-maximal effective concentration (EC50) is 128 nM.

As to `OC[C@H]1OC[C@H](Oc2nc3nc(-c4ccc(N5CC[C@@H](F)C5)cc4)c(Cl)cc3[nH]2)C[C@@H]1O` [Example 35], in assay [1], the Emax came out at 489% and the EC50 is 18 nM.

`NS(=O)(=O)c1ccc(-c2ccc(-c3nc4nc(O[C@H]5CO[C@H](CO)[C@@H](O)C5)[nH]c4cc3Cl)cc2)cc1` [Example 56]: in assay [1], the maximal effect (Emax) stood at 392% and the EC50 turned out to be 11 nM.
